According to patent US5710174A, “Factor XIIIA inhibitor” (Zymo Genetics, Inc., priority 1995, dated 1998):

What was measured:
papain = target: T1, papain (Carica papaya, UniProt P00784); test: Papain inhibition assay; type: biochemical
T1 construct: purchased Boehringer Mannheim
T1 sequence (P00784 134-345): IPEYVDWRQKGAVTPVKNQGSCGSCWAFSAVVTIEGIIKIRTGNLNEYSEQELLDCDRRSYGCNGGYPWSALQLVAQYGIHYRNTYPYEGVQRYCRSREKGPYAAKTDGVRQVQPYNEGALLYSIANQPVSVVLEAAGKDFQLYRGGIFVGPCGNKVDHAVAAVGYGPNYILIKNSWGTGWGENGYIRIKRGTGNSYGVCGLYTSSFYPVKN
Protocol: For the papain inhibition assay, a buffer containing 0.1M NaPO4 and 2.5 mM EDTA at about pH 7.0 was used. An Azocoll™ solution was prepared by adding 5 mg Azocoll™ (Calbiochem; an insoluble, powdered cowhide to which a bright red dye is attached (azo-dye-bound collagen)) to the buffer while stirring. The Azocoll was prewarmed to about 37° C. 10 μl of 0.1M L-cysteine, 10 μl of 50 μg/ml papain (Boehringer Mannheim), 0.5 ml of Azocoll solution, and 50 μl of one of a series of concentrations of ZG-1400a, iodoacetamide, iodoacetic acid, cerulenin, or 50 μl of the DMSO or ethanol negative controls were added to duplicate 13×75 mm glass tubes. The ZG-1400a, iodoacetamide, and iodoacetic acid were individually prepared in 10% DMSO and tested using half-log dilutions, starting at a final assay concentration of 100 μM and diluting to 10 nM. Cerulenin was prepared in 10% ethanol and tested using half-log dilutions, starting at a final assay concentration of 100 μM and diluting to 10 nM. A negative (no inhibition) control for ZG-1400a, iodoacetamide and iodoacetic acid was 50 μl of 10% DMSO to give a final assay concentration of 1% DMSO in each control tube. A negative control for cerulenin was 50 μl of 10% ethanol to give a final assay concentration of 1% ethanol in each control tube. The test and control tubes then were incubated for 30 min at 37° C. in an agitated water bath.
After incubation, all of the tubes were centrifuged at 2000 RPM for 5 min. The supernatant was removed and its absorbance was read at 520 nm on a Beckman DU640 spectrophotometer to determine the amount of papain inhibition.

[1] = target: T2, tissue transglutaminase (tTG) (Cavia cutleri, UniProt P08587); test: tTG screening assay; type: biochemical
T2 construct: purchased Sigma
T2 sequence (P08587 1-690): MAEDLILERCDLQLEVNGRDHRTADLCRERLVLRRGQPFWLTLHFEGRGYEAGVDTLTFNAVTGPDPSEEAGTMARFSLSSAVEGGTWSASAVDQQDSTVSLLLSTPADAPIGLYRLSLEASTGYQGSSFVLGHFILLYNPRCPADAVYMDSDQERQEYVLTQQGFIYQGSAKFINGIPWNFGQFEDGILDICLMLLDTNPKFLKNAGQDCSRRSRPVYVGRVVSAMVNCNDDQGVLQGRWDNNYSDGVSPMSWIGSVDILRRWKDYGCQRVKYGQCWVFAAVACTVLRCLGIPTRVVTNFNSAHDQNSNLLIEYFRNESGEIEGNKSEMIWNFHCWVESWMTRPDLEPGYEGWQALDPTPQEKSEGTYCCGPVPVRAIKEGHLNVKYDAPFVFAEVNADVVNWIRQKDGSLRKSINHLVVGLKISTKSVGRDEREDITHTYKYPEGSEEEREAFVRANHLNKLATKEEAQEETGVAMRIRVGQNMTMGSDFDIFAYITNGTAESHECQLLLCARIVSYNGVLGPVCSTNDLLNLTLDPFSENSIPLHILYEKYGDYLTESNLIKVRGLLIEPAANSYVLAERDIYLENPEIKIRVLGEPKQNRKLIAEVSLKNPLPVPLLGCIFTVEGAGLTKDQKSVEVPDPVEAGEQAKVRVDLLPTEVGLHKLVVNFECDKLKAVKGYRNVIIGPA
Excerpt: Because FXIII is a member of the tissue transglutaminase (tTG) family, all potential FXIIIa inhibitors identified in the primary FXIIIa screening assay were further screened for tTG (non-FXIII-specific) inhibitory activity. The tTG screening assay was identical to the primary FXIIIa screening assay, except that tTG (Sigma) was used instead of FXIIIa and no thrombin or PPACK was used.
The determination of IC50 values was done the same as in the primary FXIIIa screening assay, except that purified compounds were used at varying concentrations (instead of crude culture extracts). The IC50 values allow one to make comparisons of one compound to another.

plasma clots = test: Plasma clot lysis assay; parameters: species or system human; settings: 100 μM
Protocol: For this assay, 50 μl of one of a series of concentrations of iodoacetic acid, cerulenin, or ZG-1400a was added to 0.5 ml human citrated plasma (prepared from one blood donor) in 5 ml polypropylene tubes. The ZG-1400a and iodoacetic acid were individually prepared in 10% DMSO and tested using half-log dilutions, starting at a final assay concentration of 100 μM and diluting to 10 μM. Cerulenin was prepared in 10% ethanol and tested using half-log dilutions, starting at a final assay concentration of 100 μM and diluting to 10 μM.
Approximately 10^6 cpm ^125 I-fibrinogen (Amersham), 50 mM CaCl2 (20 mM above citrate concentration) and 5 units thrombin (bovine, Enzyme Research Labs) were added to each test and control tube. The tubes were incubated while rocking for 20 h at 37° C. Plasma clots formed in the tubes were washed three times with about 1 ml phosphate buffered saline (PBS). The plasma clots in each tube were counted after the PBS washes.
Approximately 2 ml of 50 mM Tris, pH 7.4, containing 50 mM NaCl, 28 μg plasminogen (human, Calbiochem), and 280 ng urokinase (human, Calbiochem) were added to the clots in test and control tubes. At 1, 2, and 4 h intervals, 25 μl aliquots of the samples were removed from each tube and counted.
The values shown in Table 3 represent the amount of lysis after plasma clots were formed for about 20 h and exposed to plasminogen and urokinase for about 4 h.

FXIIIa = target: T3, FXIIIa (Homo sapiens, UniProt P00488); test: Primary FXIIIa screening assay (cross-linking of biotinylated fibrinogen and immobilized fibronectin); type: biochemical
T3 sequence (P00488 39-732 limits assumed): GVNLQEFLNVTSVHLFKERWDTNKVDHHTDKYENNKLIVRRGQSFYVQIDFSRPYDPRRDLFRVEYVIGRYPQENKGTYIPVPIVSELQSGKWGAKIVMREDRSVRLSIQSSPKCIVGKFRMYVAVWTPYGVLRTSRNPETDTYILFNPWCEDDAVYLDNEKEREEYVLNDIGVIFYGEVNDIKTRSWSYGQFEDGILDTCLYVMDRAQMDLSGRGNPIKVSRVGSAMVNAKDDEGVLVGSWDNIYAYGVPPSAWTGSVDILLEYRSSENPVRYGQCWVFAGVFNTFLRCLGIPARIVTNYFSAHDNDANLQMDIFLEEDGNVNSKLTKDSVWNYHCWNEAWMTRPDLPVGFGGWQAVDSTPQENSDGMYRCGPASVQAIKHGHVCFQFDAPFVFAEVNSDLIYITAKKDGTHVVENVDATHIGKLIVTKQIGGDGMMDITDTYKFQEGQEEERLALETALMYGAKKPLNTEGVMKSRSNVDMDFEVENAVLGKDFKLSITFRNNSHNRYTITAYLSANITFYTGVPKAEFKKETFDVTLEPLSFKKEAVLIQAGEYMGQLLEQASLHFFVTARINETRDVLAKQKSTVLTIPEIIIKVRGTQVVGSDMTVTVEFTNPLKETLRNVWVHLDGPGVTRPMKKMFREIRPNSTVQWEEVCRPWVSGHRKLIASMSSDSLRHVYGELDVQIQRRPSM
Protocol: The primary FXIIIa screening assay used a 96-well high throughput assay format. This assay assesses test sample inhibition of FXIIIa catalyzed cross-linking of biotinylated fibrinogen and immobilized fibronectin.
Test samples (possibly containing FXIIIa inhibitors) were added to 96-well plates coated with fibronectin, followed by the addition of FXIIIa, as described in the primary FXIIIa screening assay, below. Biotinylated fibrinogen was added to the wells, and streptavidin-alkaline phosphatase was used to detect biotinylated fibrinogen that had been cross-linked to fibronectin.
Purified fibronectin was diluted to 1 μg/ml in 0.1M Na2 CO3, pH 9.7, and added to control and test assay wells of 96-well plates at 100 μl/well. All wells were incubated overnight at 4° C.
After incubation, the plate wells were washed twice with 200 μl/well of wash buffer per wash to remove all fibronectin not bound to the wells. The wash buffer contained 0.135M NaCl, 2.7 mM KCl, 25 mM Tris at about pH 7.4, and 0.1% Tween 20® (Sigma Chemical Co., St. Louis, Mo.; polyoxyethylenesorbitan monolaurate). The plate wells were then blocked with 200 μl/well blocking buffer and incubated for 1-2 h at 37° C. The blocking buffer contained 0.135M NaCl, 2.7 mM KCl, 25 mM Tris at about pH 7.4, 0.1% Tween 20®, and 0.5% BSA (bovine serum albumin, Sigma fraction V; Sigma). After incubation, the plates wells were again washed with 200 μl/well of wash buffer to remove excess blocking buffer.
Briefly, fibrinogen was dialyzed against 0.1M NaHCO3, pH 8.5 (coupling buffer) at a concentration of 1 mg/ml. BNHS was dissolved in dimethylformamide at a concentration of 1.7 mg/ml, and added to fibrinogen in coupling buffer at a ratio of 30 μl BNHS to 1 ml fibrinogen. The mixture was incubated with rocking for 4 h at room temperature, dialyzed against PBS, and stored in aliquots at -80° C.
Biotinylated fibrinogen (40 μl of 20 μg/ml solution) was added to each plate well. Except in control wells (which received 10 μl of 10% DMSO alone), 10 μl of each of the 11,198 crude extracts in 10% DMSO were added to duplicate wells after the addition of biotinylated fibrinogen, resulting in a 1% final assay concentration of DMSO.
FXIIIa (recombinant human FXIIIa2 (ZymoGenetics), as described in European Patent No. 0 268 772, granted Apr. 26, 1995, and incorporated herein by reference) was diluted to 100 μg/ml in a solution of 50 mM Tris, 5 mM CaCl2 at pH 7.4 containing 1 unit/ml thrombin (bovine; Enzyme Research Labs) and incubated for 20 min at 37° C. FXIIIa then was diluted to 1 μg/ml in a cross-linking buffer consisting of the blocking buffer described above plus 20 mM CaCl2 and 75 ng/ml D-phenylalanyl-L-prolyl-L-arginine chloromethyl ketone (PPACK; Calbiochem, La Jolla, Calif.). Fifty microliters of FXIIIa in cross-linking buffer was added to each test and control well. All wells then were incubated for about 10 min at 37° C.
After incubation, the wells were washed twice with 200 μl/well of wash buffer to remove all biotinylated fibrinogen that was not cross-linked to fibronectin.

clot formation = settings: background; cited from earlier work

In the case of `O=C(O)CI` [Iodoacetic Acid, iodoacetic acid], the IC50 (papain) is reported as 0.7 µM, the “Papain inhibition (result in words, IC50 table)” value (papain; 100 μM to 10 nM, 30 min at 37° C.) is reported as “did cause inhibition” and the IC50 [1] is reported as 32 µM. The “susceptibility of plasma clots to lysis by plasminogen and urokinase” value (plasma clots) was “significantly more susceptible to lysis”, the “% Plasma Clot lysis” value (plasma clots; clots formed about 20 h, plasminogen and urokinase about 4 h) was 23% and the IC50 (FXIIIa) was 350 µM.
In the case of `O=c1oc2ccccc2c(O)c1Cc1c(O)c2ccccc2oc1=O` [dicoumarin], the internal bleeding (clot formation) is given as “more prone to internal bleeding” and the toxicity (clot formation) is given as “associated with toxicity”.
